ChEMBL document CHEMBL4184125, “SIRT1 activator isolated from artificial gastric juice incubate of total saponins in stems and leaves of Panax ginseng” (Bioorg Med Chem Lett, 2018)
The source made the active and inactive calls. No cut-off for these calls is given here.

How the values were obtained:
[1] = molecular target: T1, NAD-dependent protein deacetylase sirtuin-1 (Homo sapiens) (UniProt Q96EB6); assay: Inhibition of SIRT1 (unknown origin) assessed as reduction in Fluor de Lys deacetylation at 10 to 20 uM incubated for 5 mins followed by substrate addition measured after 45 mins in presence of NAD/NADH by fluorescence assay
T1 sequence (whole entry): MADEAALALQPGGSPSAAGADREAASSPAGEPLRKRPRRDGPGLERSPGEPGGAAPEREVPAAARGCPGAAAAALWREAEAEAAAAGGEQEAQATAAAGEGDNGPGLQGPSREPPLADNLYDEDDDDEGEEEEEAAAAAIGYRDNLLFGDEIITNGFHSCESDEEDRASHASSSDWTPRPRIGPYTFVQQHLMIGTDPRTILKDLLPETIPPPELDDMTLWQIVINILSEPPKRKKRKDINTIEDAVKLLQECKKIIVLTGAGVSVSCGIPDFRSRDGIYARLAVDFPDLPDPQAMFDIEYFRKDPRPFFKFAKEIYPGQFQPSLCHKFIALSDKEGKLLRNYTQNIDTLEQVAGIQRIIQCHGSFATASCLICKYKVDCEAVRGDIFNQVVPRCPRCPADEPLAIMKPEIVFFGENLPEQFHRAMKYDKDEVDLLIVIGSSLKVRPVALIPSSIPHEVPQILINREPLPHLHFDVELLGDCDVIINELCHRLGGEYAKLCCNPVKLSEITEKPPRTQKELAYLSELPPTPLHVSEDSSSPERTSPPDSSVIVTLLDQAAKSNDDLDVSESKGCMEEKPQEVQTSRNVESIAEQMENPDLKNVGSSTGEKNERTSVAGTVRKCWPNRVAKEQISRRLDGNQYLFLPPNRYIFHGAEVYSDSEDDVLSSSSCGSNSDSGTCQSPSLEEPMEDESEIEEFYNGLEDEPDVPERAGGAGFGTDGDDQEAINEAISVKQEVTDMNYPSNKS

[2] = molecular target: T1, NAD-dependent protein deacetylase sirtuin-1 (Homo sapiens); assay: Activation of SIRT1 (unknown origin) assessed as Fluor de Lys deacetylation at 10 to 20 uM incubated for 5 mins followed by substrate addition measured after 45 mins in presence of NAD/NADH by fluorescence assay

| Structure (SMILES) | inhibition [1] | Activity [2] |
| --- | --- | --- |
| CC(C)=CCC[C@@](C)(O)[C@H]1CC[C@]2(C)[C@@H]1[C@H](O)C[C@@H]1[C@@]3(C)CC[C@H](O[C@@H]4O[C@H](CO)[C@@H](O)[C@H](O)[C@H]4O)C(C)(C)[C@@H]3CC[C@]12C | inactive |  |
| NC(=O)c1cccnc1 | inactive |  |
| Oc1ccc(/C=C/c2cc(O)cc(O)c2)cc1 | inactive |  |
| CCOC(C)(C)CC/C=C(\C)[C@H]1CC[C@]2(C)[C@@H]1[C@H](O)C[C@@H]1[C@@]3(C)CC[C@H](O)C(C)(C)[C@@H]3[C@@H](O)C[C@]12C | inactive |  |
| CC(C)(O)CCC[C@](C)(O)[C@H]1CC[C@]2(C)[C@@H]1[C@H](O)C[C@@H]1[C@@]3(C)CC[C@H](O)C(C)(C)[C@@H]3[C@@H](O)C[C@]12C | inactive | inactive |
| CC(C)=CCC[C@](C)(O)[C@H]1CC[C@]2(C)[C@@H]1[C@H](O)C[C@@H]1[C@@]3(C)CC[C@H](O)C(C)(C)[C@@H]3CC[C@]12C |  | Active |
| CC(C)=CC/C=C(\C)[C@H]1CC[C@]2(C)[C@@H]1[C@H](O)C[C@@H]1[C@@]3(C)CC[C@H](O)C(C)(C)[C@@H]3[C@@H](O[C@@H]3O[C@H](CO)[C@@H](O)[C@H](O)[C@H]3O)C[C@]12C | inactive | Active |
| C/C(=C\CCC(C)(C)O)[C@H]1CC[C@]2(C)[C@@H]1[C@H](O)C[C@@H]1[C@@]3(C)CC[C@H](O)C(C)(C)[C@@H]3[C@@H](O)C[C@]12C | inactive |  |
| CC(C)(O)CCC[C@@](C)(O)[C@H]1CC[C@]2(C)[C@@H]1[C@H](O)C[C@@H]1[C@@]3(C)CC[C@H](O)C(C)(C)[C@@H]3[C@@H](O)C[C@]12C | inactive | inactive |
| C/C(=C/CCC(C)(C)O)[C@H]1CC[C@]2(C)[C@@H]1[C@H](O)C[C@@H]1[C@@]3(C)CC[C@H](O)C(C)(C)[C@@H]3[C@@H](O)C[C@]12C | inactive |  |
| CC(C)=CCC[C@](C)(O)[C@H]1CC[C@]2(C)[C@@H]1[C@H](O)C[C@@H]1[C@@]3(C)CC[C@H](O[C@@H]4O[C@H](CO)[C@@H](O)[C@H](O)[C@H]4O)C(C)(C)[C@@H]3CC[C@]12C | inactive | Active |
| C/C(=C/CC[C@@](C)(O)[C@H]1CC[C@]2(C)[C@@H]1[C@H](O)C[C@@H]1[C@@]3(C)CC[C@H](O)C(C)(C)[C@@H]3[C@@H](O)C[C@]12C)CO | inactive |  |

The next lines start with the values.

| inhibition [1] | Activity [2] | Structure (SMILES) |
| --- | --- | --- |
| inactive | Active | CC(C)=CC/C=C(\C)[C@H]1CC[C@]2(C)[C@@H]1[C@H](O)C[C@@H]1[C@@]3(C)CC[C@H](O[C@@H]4O[C@H](CO)[C@@H](O)[C@H](O)[C@H]4O[C@@H]4O[C@H](CO)[C@@H](O)[C@H](O)[C@H]4O)C(C)(C)[C@@H]3CC[C@]12C |
| inactive |  | CC(C)=CCC[C@](C)(O)[C@H]1CC[C@]2(C)[C@@H]1[C@H](O)C[C@@H]1[C@@]3(C)CC[C@H](O)C(C)(C)[C@@H]3[C@@H](O[C@@H]3O[C@H](CO)[C@@H](O)[C@H](O)[C@H]3O[C@@H]3O[C@@H](C)[C@H](O)[C@@H](O)[C@H]3O)C[C@]12C |
| inactive | Active | CC(C)=CCC[C@](C)(O)[C@H]1CC[C@]2(C)[C@@H]1[C@H](O)C[C@@H]1[C@@]3(C)CC[C@H](O[C@@H]4O[C@H](CO)[C@@H](O)[C@H](O)[C@H]4O[C@@H]4O[C@H](CO)[C@@H](O)[C@H](O)[C@H]4O)C(C)(C)[C@@H]3CC[C@]12C |
| inactive | Active | CC(C)=CCC[C@](C)(O)[C@H]1CC[C@]2(C)[C@@H]1[C@H](O)C[C@@H]1[C@@]3(C)CC[C@H](O[C@@H]4O[C@H](CO)[C@@H](O)[C@H](O)[C@H]4O)C(C)(C)[C@@H]3[C@@H](O)C[C@]12C |
| inactive |  | CC(C)=CCC[C@@](C)(O)[C@H]1CC[C@]2(C)[C@@H]1[C@H](O)C[C@@H]1[C@@]3(C)CC[C@H](O)C(C)(C)[C@@H]3[C@@H](O[C@@H]3O[C@H](CO)[C@@H](O)[C@H](O)[C@H]3O[C@@H]3O[C@@H](C)[C@H](O)[C@@H](O)[C@H]3O)C[C@]12C |
| inactive | Active | C=C(CCC=C(C)C)[C@H]1CC[C@]2(C)[C@@H]1[C@H](O)C[C@@H]1[C@@]3(C)CC[C@H](O)C(C)(C)[C@@H]3[C@@H](O[C@@H]3O[C@H](CO)[C@@H](O)[C@H](O)[C@H]3O)C[C@]12C |
| inactive | Active | CC(C)=CCC[C@](C)(O[C@@H]1O[C@H](CO)[C@@H](O)[C@H](O)[C@H]1O)[C@H]1CC[C@]2(C)[C@@H]1[C@H](O)C[C@@H]1[C@@]3(C)CC[C@H](O)C(C)(C)[C@@H]3[C@@H](O)C[C@]12C |
| inactive |  | C/C(=C\CCC(C)(C)O)[C@H]1CC[C@]2(C)[C@@H]1[C@H](O)C[C@@H]1[C@@]3(C)CC[C@H](O[C@@H]4O[C@H](CO)[C@@H](O)[C@H](O)[C@H]4O)C(C)(C)[C@@H]3[C@@H](O)C[C@]12C |
| inactive |  | CC(C)=CCC[C@@](C)(O)[C@H]1CC[C@]2(C)[C@@H]1[C@H](O)C[C@@H]1[C@@]3(C)CC[C@H](O[C@@H]4O[C@H](CO)[C@@H](O)[C@H](O)[C@H]4O)C(C)(C)[C@@H]3[C@@H](O)C[C@]12C |
| inactive |  | C=C(CCC=C(C)C)[C@H]1CC[C@]2(C)[C@@H]1[C@H](O)C[C@@H]1[C@@]3(C)CC[C@H](O)C(C)(C)[C@@H]3[C@@H](O[C@@H]3O[C@H](CO)[C@@H](O)[C@H](O)[C@H]3O[C@@H]3O[C@@H](C)[C@H](O)[C@@H](O)[C@H]3O)C[C@]12C |
| inactive | Active | CC(C)=CCC[C@@](C)(O)[C@H]1CC[C@]2(C)[C@@H]1[C@H](O)C[C@@H]1[C@@]3(C)CC[C@H](O[C@@H]4O[C@H](CO)[C@@H](O)[C@H](O)[C@H]4O[C@@H]4O[C@H](CO)[C@@H](O)[C@H](O)[C@H]4O)C(C)(C)[C@@H]3CC[C@]12C |
